Article PMC3146814, “The crystal structure of alanine racemase from Streptococcus pneumoniae, a target for structure-based drug design” (BMC Microbiology, 2011)

Assays:
[1] = target: T1, alanine racemase from S. pneumoniae (AlrSP) (Streptococcus pneumoniae, UniProt P0A2W8); experiment: X-ray crystallography, […] Å; assay type: binding; settings: covalent; internal aldimine with Lys40 (LLP residue); active site; crystals grown at pH 7.2, 4 °C
T1 construct: gene alr; untagged as far as told, gene in pET17, E. coli BL21(DE3) pLysS; monomer residues 1-367; homodimer; Lys129 carbamylated
T1 sequence (P0A2W8 1-367): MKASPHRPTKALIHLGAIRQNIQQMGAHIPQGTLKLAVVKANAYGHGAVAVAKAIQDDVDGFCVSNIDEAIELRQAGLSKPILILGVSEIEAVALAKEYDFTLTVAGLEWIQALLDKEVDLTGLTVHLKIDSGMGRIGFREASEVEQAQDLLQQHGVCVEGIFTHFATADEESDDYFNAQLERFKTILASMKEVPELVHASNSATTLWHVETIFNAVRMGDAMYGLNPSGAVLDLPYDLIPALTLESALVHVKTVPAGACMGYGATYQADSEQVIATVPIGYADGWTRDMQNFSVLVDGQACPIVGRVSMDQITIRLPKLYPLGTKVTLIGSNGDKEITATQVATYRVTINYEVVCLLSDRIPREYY

[2] = target: the molecule itself; experiment: crystal structure; sitting drop vapor diffusion at 4°C, 1.2 M Na citrate, 0.1 M MES pH 7.2, 10% glycerol, protein 23 mg/ml; space group P3(1)21, two monomers in the asymmetric unit; 2.0 Å

For `Cc1ncc(COP(=O)(O)O)c(C=O)c1O` [pyridoxal phosphate (PLP)], the “X-ray crystallography, 2.0 Å” value [1] was “The pyridoxal phosphate (PLP) cofactor is connected to Lys40 through an internal aldimine bond”.

B1: alanine racemase from Streptococcus pneumoniae (enzyme, UniProt P0A2W8 1-367, looked up)
chain: T1 sequence (P0A2W8 1-367)
modifications: PLP covalently bound to Lys40 by an internal aldimine bond (N'-pyridoxyl-lysine-5'-monophosphate, LLP); carbamylated Lys129
notes: alanine racemase (E.C. 5.1.1.1) of Streptococcus pneumoniae; the gene was cloned into pET17; the model holds residues 1-367 of each monomer (734 residues, 100%): alpha/beta barrel domain 1-238 and beta-strand domain 239-367; no tag is named; also called AlrSP; Alr
With B1 the “stoichiometry N” value [2] was 2.
